For data set [1] the following is noted: reported literature data, cited from earlier work.
Data set [2] can be described thus: Stability to acid catalyst (pTSA) in acrylic solvent system, followed by gas chromatography. Type of data set: physicochemical. Conditions: 0.5 wt % pTSA, 50° C.; for Wt. % of Solvent At One Week Decomposition Period / Wt. % of Solvent At Three Week Decomposition Period: nitrogen atmosphere, start = 100. Here is the method: Acrylic solvent systems were prepared to test the stability of dimethyl carbonate to acid catalysts, which are commonly present in coating compositions. The formulations contained 29.9 wt % DMC, 28.7 wt % pentyl acetate, 20.2 wt % n-butyl acetate, 16.1 wt % n-butyl alcohol, 3.6 wt % methyl ethyl ketone, 1.5 wt % isopropyl alcohol. 2 wt % toluene as an internal standard. The latter materials were purchased from Aldrich Chemical Co.
Para toluene sulfonic acid (PTSA) was added to the above formulation (again, pTSA was purchased from Aldrich Chemical Co.), in the amount of 0.5 wt %. The solutions were sealed and placed in an oven at 50° C. under a nitrogen atmosphere. Samples were withdrawn at intervals for testing. The content of dimethyl carbonate was monitored over time by gas chromatographic analysis using an HP 5890 gas chromatograph. In a parallel experiment an equal amount of tert. Butyl acetate was used instead of DMC. The results are shown below in Table 8 (all percentages are by weight).

Another data set is described as follows: Fluid solvent properties. Particulars: for Viscosity: 20° C. An excerpt:
One of ordinary skill in the art can readily determine the flash point of a fluid or blend (e.g., ASTM D92-78).
The evaporation rate should be suitable for the intended purpose. […] The fluid selected preferably will have a similar evaporation rate to the disadvantaged fluid being replaced, particularly in the case where a fluid blend is used and an acceptable evaporation profile is desired. It is convenient for the fluid selected to have an evaporation rate less than 12 times the evaporation rate of n-butyl acetate. Evaporation rates may also be given relative to n-butyl acetate at 1.0 (ASTM D3539-87). Ranges of evaporation rates important for different applications are 5-3, 3-2, 2-1, 1.0-0.3, 0.3-0.1, and <0.1, relative to n-butyl acetate at 1.0. The present invention is related to fluids and fluid blends that at least partially evaporate into the atmosphere during or after their application.

Like-named read-outs stand apart in the source and are kept apart here. Marks after values point to notes of the source that are not given here.

One may read the LD50 as the dose at which mortality reaches 50%. The low end stands for a more toxic substance, the high end for a less toxic substance.

Text for in vivo: One way to measure the toxic effects of a chemical is to measure the dose-effect relationship; the dose is usually measured in mg of chemical per kg of body mass. This is typically done experimentally by administering the chemical to mice or rats at several doses in the lethal range and plotting the logarithm of the dose versus the percentage of the population killed by the chemical. The dose lethal to 50% of the test population is called the median lethal dose (LD50) and is typically used as a guide for the toxicity of a chemical. […] EU (European Union) uses a cutoff of >2,000 mg/kg.

For `CCCCOC(C)=O` [Butyl Acetate], the “Flash Point” value in data set [1] is 27 °C.
As for `COC(=O)OC` [DMC, dimethyl carbonate], in data set [1], the “Flash Point” value is given as “+19 to +32* ° C”. In addition, in data set [2], the “Stability to acid catalysts (in words)” value was “more stable to acid catalysts than is t-butyl acetate”, the “Wt. % of Solvent At One Week Decomposition Period” value is reported as 97.8 wt. % and the “Wt. % of Solvent At Three Week Decomposition Period” value is given as 95.4 wt. %. The 50% lethal dose (LD50) in “in vivo” worked out at 13000 mg/kg. Also, in “Fluid solvent properties”, the “Boiling Temperature” value was 90 °C, the “Evaporation Ratio to Butyl Acetate” value was found to be 3.2, the “Specific Gravity” value is listed as 1.065 and the Surface Tension stood at 29 dyn/cm. This compound also came in with a Viscosity in the data set “Fluid solvent properties” of 0.60 cps.
Regarding `COC(=O)C(C)(C)C` [MP, methyl pivalate], in the data set “Fluid solvent properties”, the “Boiling Temperature” value was found to be 99 °C, the “Evaporation Ratio to Butyl Acetate” value stood at 2.2, the “Flash Point” value stood at 27.2 °C and the “Specific Gravity” value is 0.873. In the data set “Fluid solvent properties”, this compound came in with a Surface Tension of 23.8 dyn/cm and a Viscosity of 0.74 cps.
As for `CC(C)=O` [Acetone], the “Flash Point” value in data set [1] was −20* ° C. For the same compound, in “in vivo”, the LD50 came out at 5800 mg/kg. Also, in “Fluid solvent properties”, the “Boiling Temperature” value stood at 56 °C; the “Evaporation Ratio to Butyl Acetate” value turned out to be 18; the “Hansen Solubility Parameter, H-Bouding” value is given as 3.4; the “Hansen Solubility Parameter, Nonpolar” value amounted to 7.6. In addition, in the data set “Fluid solvent properties”, the “Hansen Solubility Parameter, Polar” value came out at 5.1; the “Hansen Solubility Parameter, Total” value came out at 9.2; the “Specific Gravity” value amounted to 0.792; the Surface Tension came to 22.3 dyn/cm. Further, the Viscosity in the data set “Fluid solvent properties” is reported as 0.33 cps.
Regarding `CC(=O)OC(C)(C)C` [t-butyl acetate], in data set [2], the “Wt. % of Solvent At One Week Decomposition Period” value turned out to be 54.4 wt. % and the “Wt. % of Solvent At Three Week Decomposition Period” value was 17.2 wt. %.
Turning to `COC(C)=O` [methyl acetate], the “Flash Point” value in data set [1] is around −12 °C; in data set [1] (listed as Methyl acetate) it was “about −12 °C”.
